Measurements from ChEMBL document CHEMBL3885881, “DrugMatrix”.

Species: Rattus norvegicus
Test: DrugMatrix - Regimen: Daily Repeat
Format: toxicity, organism-based, Sprague-Dawley
Parameters: regimen Daily Repeat, gender Male, age 6-8 weeks
Settings: in vivo, po, route oral GAVAGE, vehicle .5 % CMC; for ABSOLUTE BASOPHIL / ABSOLUTE EOSINOPHIL / ABSOLUTE LYMPHOCYTE / ABSOLUTE MONOCYTE / ABSOLUTE SEGMENTED NEUTROPHIL / BASOPHIL / EOSINOPHIL / ERYTHROCYTE COUNT / HEMATOCRIT / HEMOGLOBIN / LEUKOCYTE COUNT / LYMPHOCYTE / MEAN CORPUSCULAR HEMOGLOBIN / MEAN CORPUSCULAR HEMOGLOBIN CONCENTRATION / MEAN CORPUSCULAR VOLUME / MONOCYTE / NEUTROPHIL / NUCLEATED RED BLOOD CELLS / PLATELET COUNT: tissue Blood; for ALANINE AMINOTRANSFERASE / ALBUMIN / ALKALINE PHOSPHATASE / ASPARTATE AMINOTRANSFERASE / BLOOD UREA NITROGEN / CARBON DIOXIDE / CHLORIDE / CHOLESTEROL / CREATINE PHOSPHOKINASE / CREATININE / GLUCOSE / LACTATE DEHYDROGENASE / LIPASE / PHOSPHORUS / POTASSIUM / SODIUM / TOTAL BILIRUBIN / TOTAL PROTEIN / URIC ACID: tissue Plasma
[1] = 0 mg/kg, 72 h, dose level Control, time 3 day
[2] = 0 mg/kg, 120 h, dose level Control, time 5 day
[3] = 50 mg/kg, 72 h, dose level Low, time 3 day

Structure (SMILES): CC1(C)[C@H]2CC[C@]1(C)C(=O)C2 [(-)-CAMPHOR]
- ABSOLUTE BASOPHIL [1]: 0 CELLS/uL
- ABSOLUTE EOSINOPHIL [1]: 222.83 CELLS/uL
- ABSOLUTE LYMPHOCYTE [1]: 14453 CELLS/uL
- ABSOLUTE MONOCYTE [1]: 0 CELLS/uL
- ABSOLUTE SEGMENTED NEUTROPHIL [1]: 1490.83 CELLS/uL
- BASOPHIL [1]: 0%
- EOSINOPHIL [1]: 1.33%
- ERYTHROCYTE COUNT [1]: 5.76 x10E6/uL
- HEMATOCRIT [1]: 36.52%
- HEMOGLOBIN [1]: 13.45 G/DL
- LEUKOCYTE COUNT [1]: 16.17 x10E3/uL
- LYMPHOCYTE [1]: 89.33%
- MEAN CORPUSCULAR HEMOGLOBIN [1]: 23.37 pg
- MEAN CORPUSCULAR HEMOGLOBIN CONCENTRATION [1]: 36.85 G/DL
- MEAN CORPUSCULAR VOLUME [1]: 63.47 fL
- MONOCYTE [1]: 0%
- NEUTROPHIL [1]: 9.33%
- NUCLEATED RED BLOOD CELLS [1]: 0 /100WBC
- PLATELET COUNT [1]: 1239.5 x10E3/uL
- ALANINE AMINOTRANSFERASE [1]: 43.83 u/L
- ALBUMIN [1]: 4.27 G/DL
- ALKALINE PHOSPHATASE [1]: 398.83 u/L
- ASPARTATE AMINOTRANSFERASE [1]: 81.17 u/L
- BLOOD UREA NITROGEN [1]: 17.67 mg/dL
- CARBON DIOXIDE [1]: 27.5 mmol/L
- CHLORIDE [1]: 99.17 MEQ/L
- CHOLESTEROL [1]: 74 mg/dL
- CREATINE PHOSPHOKINASE [1]: 331.5 u/L
- CREATININE [1]: 0.2 mg/dL
- GLUCOSE [1]: 171.33 mg/dL
- LACTATE DEHYDROGENASE [1]: 241.67 u/L
- LIPASE [1]: 9.5 u/L
- PHOSPHORUS [1]: 12.25 mg/dL
- POTASSIUM [1]: 6.33 MEQ/L
- SODIUM [1]: 141.28 MEQ/L
- TOTAL BILIRUBIN [1]: 0.15 mg/dL
- TOTAL PROTEIN [1]: 5.98 G/DL
- URIC ACID [1]: 1.63 mg/dL
- ABSOLUTE BASOPHIL [2]: 0 CELLS/uL
- ABSOLUTE EOSINOPHIL [2]: 148.67 CELLS/uL
- ABSOLUTE LYMPHOCYTE [2]: 16020.5 CELLS/uL
- ABSOLUTE MONOCYTE [2]: 29.17 CELLS/uL
- ABSOLUTE SEGMENTED NEUTROPHIL [2]: 1468.33 CELLS/uL
- BASOPHIL [2]: 0%
- EOSINOPHIL [2]: 1%
- ERYTHROCYTE COUNT [2]: 5.78 x10E6/uL
- HEMATOCRIT [2]: 35.77%
- HEMOGLOBIN [2]: 13.4 G/DL
- LEUKOCYTE COUNT [2]: 17.67 x10E3/uL
- LYMPHOCYTE [2]: 90.5%
- MEAN CORPUSCULAR HEMOGLOBIN [2]: 23.22 pg
- MEAN CORPUSCULAR HEMOGLOBIN CONCENTRATION [2]: 37.47 G/DL
- MEAN CORPUSCULAR VOLUME [2]: 61.92 fL
- MONOCYTE [2]: 0.17%
- NEUTROPHIL [2]: 8.33%
- NUCLEATED RED BLOOD CELLS [2]: 0.17 /100WBC
- PLATELET COUNT [2]: 1255.5 x10E3/uL
- ALANINE AMINOTRANSFERASE [2]: 46.5 u/L
- ALBUMIN [2]: 4.38 G/DL
- ALKALINE PHOSPHATASE [2]: 336 u/L
- ASPARTATE AMINOTRANSFERASE [2]: 76.5 u/L
- BLOOD UREA NITROGEN [2]: 20 mg/dL
- CARBON DIOXIDE [2]: 27.5 mmol/L
- CHLORIDE [2]: 101 MEQ/L
- CHOLESTEROL [2]: 71.33 mg/dL
- CREATINE PHOSPHOKINASE [2]: 231.83 u/L
- CREATININE [2]: 0.37 mg/dL
- GLUCOSE [2]: 168.83 mg/dL
- LACTATE DEHYDROGENASE [2]: 174 u/L
- LIPASE [2]: 8.67 u/L
- PHOSPHORUS [2]: 11.48 mg/dL
- POTASSIUM [2]: 6.82 MEQ/L
- SODIUM [2]: 143.8 MEQ/L
- TOTAL BILIRUBIN [2]: 0.2 mg/dL
- TOTAL PROTEIN [2]: 5.98 G/DL
- URIC ACID [2]: 1.83 mg/dL
- ABSOLUTE BASOPHIL [3]: 0 CELLS/uL
- ABSOLUTE EOSINOPHIL [3]: 203.67 CELLS/uL
- ABSOLUTE LYMPHOCYTE [3]: 12113.67 CELLS/uL
- ABSOLUTE MONOCYTE [3]: 0 CELLS/uL
- ABSOLUTE SEGMENTED NEUTROPHIL [3]: 916 CELLS/uL
- BASOPHIL [3]: 0%
- EOSINOPHIL [3]: 1.33%
- ERYTHROCYTE COUNT [3]: 5.4 x10E6/uL
- HEMATOCRIT [3]: 33.83%
- HEMOGLOBIN [3]: 12.8 G/DL
- LEUKOCYTE COUNT [3]: 13.23 x10E3/uL
- LYMPHOCYTE [3]: 91.33%
- MEAN CORPUSCULAR HEMOGLOBIN [3]: 23.7 pg
- MEAN CORPUSCULAR HEMOGLOBIN CONCENTRATION [3]: 37.87 G/DL
- MEAN CORPUSCULAR VOLUME [3]: 62.67 fL
- MONOCYTE [3]: 0%
- NEUTROPHIL [3]: 7.33%
- NUCLEATED RED BLOOD CELLS [3]: 0 /100WBC
- PLATELET COUNT [3]: 1197.67 x10E3/uL
- ALANINE AMINOTRANSFERASE [3]: 45.67 u/L
- ALBUMIN [3]: 4.13 G/DL
- ALKALINE PHOSPHATASE [3]: 348.67 u/L
- ASPARTATE AMINOTRANSFERASE [3]: 71.33 u/L
- BLOOD UREA NITROGEN [3]: 13.33 mg/dL
- CARBON DIOXIDE [3]: 28.67 mmol/L
- CHLORIDE [3]: 99.67 MEQ/L
- CHOLESTEROL [3]: 58 mg/dL
- CREATINE PHOSPHOKINASE [3]: 220.33 u/L
- CREATININE [3]: 0.19 mg/dL
- GLUCOSE [3]: 174.67 mg/dL
- LACTATE DEHYDROGENASE [3]: 227.67 u/L
- LIPASE [3]: 8 u/L
- PHOSPHORUS [3]: 12.33 mg/dL
- POTASSIUM [3]: 6.44 MEQ/L
- SODIUM [3]: 143.07 MEQ/L
- TOTAL BILIRUBIN [3]: 0.23 mg/dL
- TOTAL PROTEIN [3]: 5.67 G/DL
- URIC ACID [3]: 1.7 mg/dL
